From patent US9732060B2, “Aminotriazine derivative and pharmaceutical composition comprising the same” (Shionogi & Co., Ltd., priority 2013, dated 2017)
Where two headings read alike, the source gives them in different places.

Legend:
[1] = Pharmacokinetic test (BA, CLtot); type: in vivo; details: rat, plasma, SD rats
Description: • (1) Animals: SD rats were used • (2) Breeding conditions: SD rats were allowed to freely take solid food and sterilized tap water. • (3) Dose and grouping: orally or intravenously administered at a predetermined dose; grouping was as follows (Dose depends on the compound)
Oral administration: 1 mg/kg (n=2)
The total body clearance (CLtot) was calculated by dividing the dose by the AUC of the intravenous administration group.

CYP1A2 = CYP1A2 (Homo sapiens (Human), UniProt P05177); test: CYP inhibition test, CYP1A2; type: in vitro ADME; details: pooled human hepatic microsome; 7-ethoxyresorufin-O-deethylation
Description: (§1) Using commercially available pooled human hepatic microsome, and employing, as markers, 7-ethoxyresorufin-O-deethylation (CYP1A2), tolbutamide methyl-hydroxylation (CYP2C9), mephenytoin 4′-hydroxylation (CYP2C19), dextromethorphan O-demethylation (CYP2D6), and terfenedine hydroxylation as typical substrate metabolism reactions of human main five CYP enzyme forms (CYP1A2, 2C9, 2C19, 2D6, 3A4), an inhibitory degree of each metabolite production amount by a test compound was assessed.
(§2) The reaction conditions were as follows: substrate, 0.5 μmol/L ethoxyresorufin (CYP1A2), 100 μmol/L tolbutamide (CYP2C9), 50 μmol/L S-mephenitoin (CYP2C19), 5 μmol/L dextromethorphan (CYP2D6), 1 μmol/L terfenedine (CYP3A4); reaction time, 15 minutes; reaction temperature, 37° C. enzyme, pooled human hepatic microsome 0.2 mg protein/mL; test, drug concentration, 1.0, 5.0, 10, 20 μmol/L (four points).
(§3) Each five kinds of substrates, human hepatic microsome, or a test drug in 50 mmol/L Hepes buffer as a reaction solution was added to a […] at the composition as described above, NADPH, as a cofactor was added to initiate metabolism reactions as markers and, after the incubation at 37° C. for 15 minutes, a methanol/acetonitrile=1/1 (v/v) solution was added to stop the reaction. After the centrifugation at 3000 rpm for 15 minutes, resorufin (CYP1A2 metabolite) in the supernatant was quantified by a fluorescent multilabel counter and tributamide hydroxide (CYP2CP metabolite), mephenytoin 4′hydroxide (CYP2C19 metabolite), […] (CYP2D6 metabolite), and terfenadine alcohol (CYP3A4 metabolite) were quantified by LC/MS/MS.
(§4) Addition of only DMSO being a solvent dissolving a drug to a reaction system was adopted as a control (100%), remaining activity (%) was calculated at each concentration of a test drug added as the solution and IC50 was calculated by reverse presumption by a logistic model using a concentration and an inhibition rate.

CYP2C9 = CYP2C9 (Homo sapiens (Human), UniProt P11712); test: CYP inhibition test, CYP2C9; type: in vitro ADME; details: pooled human hepatic microsome; tolbutamide methyl-hydroxylation
Description: as §1, §2, §3, §4

CYP2C19 = CYP2C19 (Homo sapiens (Human), UniProt P33261); test: CYP inhibition test, CYP2C19; type: in vitro ADME; details: pooled human hepatic microsome; mephenytoin 4′-hydroxylation
Description: as §1, §2, §3, §4

CYP2D6 = CYP2D6 (Homo sapiens (Human), UniProt P10635); test: CYP inhibition test, CYP2D6; type: in vitro ADME; details: pooled human hepatic microsome; dextromethorphan O-demethylation
Description: as §1, §2, §3, §4

CYP3A4 = CYP3A4 (Homo sapiens (Human), UniProt P08684); test: CYP inhibition test, CYP3A4; type: in vitro ADME; details: pooled human hepatic microsome; terfenedine hydroxylation
Description: as §1, §2, §3, §4

[2] = intravenous administration 0.5 mg/kg
[3] = intravenous administration 0.5 mg/kg, read-out: AUC (iv)
[4] = oral administration 1 mg/kg, read-out: AUC (po)

Chain of CYP2D6 (P10635 whole entry): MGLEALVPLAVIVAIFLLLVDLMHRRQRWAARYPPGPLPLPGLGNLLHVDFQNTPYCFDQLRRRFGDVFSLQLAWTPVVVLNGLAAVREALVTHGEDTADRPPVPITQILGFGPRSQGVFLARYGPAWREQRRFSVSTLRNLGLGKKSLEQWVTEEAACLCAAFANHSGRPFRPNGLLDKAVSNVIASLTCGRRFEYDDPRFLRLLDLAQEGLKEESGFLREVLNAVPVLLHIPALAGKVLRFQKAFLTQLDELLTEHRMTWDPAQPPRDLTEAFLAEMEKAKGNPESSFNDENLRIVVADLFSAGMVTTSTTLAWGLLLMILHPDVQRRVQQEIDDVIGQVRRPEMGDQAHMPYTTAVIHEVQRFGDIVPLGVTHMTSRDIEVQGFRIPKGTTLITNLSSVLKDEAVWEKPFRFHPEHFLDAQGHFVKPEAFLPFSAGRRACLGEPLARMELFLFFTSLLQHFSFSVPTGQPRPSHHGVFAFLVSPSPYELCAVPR
Chain of CYP3A4 (P08684 whole entry): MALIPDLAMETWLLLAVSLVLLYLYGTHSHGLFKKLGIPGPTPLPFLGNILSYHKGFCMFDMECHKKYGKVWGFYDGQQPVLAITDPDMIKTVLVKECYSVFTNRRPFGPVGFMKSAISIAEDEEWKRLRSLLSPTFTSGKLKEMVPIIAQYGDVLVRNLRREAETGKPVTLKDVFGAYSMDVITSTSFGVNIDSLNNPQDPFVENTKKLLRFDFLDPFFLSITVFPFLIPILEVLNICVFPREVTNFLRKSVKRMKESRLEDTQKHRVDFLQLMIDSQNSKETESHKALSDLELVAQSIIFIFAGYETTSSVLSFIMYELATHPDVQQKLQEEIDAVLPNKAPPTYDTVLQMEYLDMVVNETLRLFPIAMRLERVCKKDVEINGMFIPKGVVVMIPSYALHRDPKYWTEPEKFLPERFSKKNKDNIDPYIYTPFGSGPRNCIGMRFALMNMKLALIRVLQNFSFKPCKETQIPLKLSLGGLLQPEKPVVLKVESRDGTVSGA
Chain of CYP1A2 (P05177 whole entry): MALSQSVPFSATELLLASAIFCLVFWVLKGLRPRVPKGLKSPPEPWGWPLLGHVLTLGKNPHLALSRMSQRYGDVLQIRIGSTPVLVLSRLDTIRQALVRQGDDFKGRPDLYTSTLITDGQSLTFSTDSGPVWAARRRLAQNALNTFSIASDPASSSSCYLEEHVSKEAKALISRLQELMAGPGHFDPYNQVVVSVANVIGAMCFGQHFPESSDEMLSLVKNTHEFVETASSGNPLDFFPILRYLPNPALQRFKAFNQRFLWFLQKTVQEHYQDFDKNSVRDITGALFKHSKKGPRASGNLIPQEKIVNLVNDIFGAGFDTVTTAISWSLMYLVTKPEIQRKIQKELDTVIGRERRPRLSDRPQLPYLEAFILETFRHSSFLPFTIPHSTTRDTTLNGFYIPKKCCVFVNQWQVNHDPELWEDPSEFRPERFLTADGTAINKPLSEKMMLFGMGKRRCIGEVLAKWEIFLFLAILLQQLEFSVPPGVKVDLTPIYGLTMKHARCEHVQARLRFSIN
Chain of CYP2C19 (P33261 whole entry): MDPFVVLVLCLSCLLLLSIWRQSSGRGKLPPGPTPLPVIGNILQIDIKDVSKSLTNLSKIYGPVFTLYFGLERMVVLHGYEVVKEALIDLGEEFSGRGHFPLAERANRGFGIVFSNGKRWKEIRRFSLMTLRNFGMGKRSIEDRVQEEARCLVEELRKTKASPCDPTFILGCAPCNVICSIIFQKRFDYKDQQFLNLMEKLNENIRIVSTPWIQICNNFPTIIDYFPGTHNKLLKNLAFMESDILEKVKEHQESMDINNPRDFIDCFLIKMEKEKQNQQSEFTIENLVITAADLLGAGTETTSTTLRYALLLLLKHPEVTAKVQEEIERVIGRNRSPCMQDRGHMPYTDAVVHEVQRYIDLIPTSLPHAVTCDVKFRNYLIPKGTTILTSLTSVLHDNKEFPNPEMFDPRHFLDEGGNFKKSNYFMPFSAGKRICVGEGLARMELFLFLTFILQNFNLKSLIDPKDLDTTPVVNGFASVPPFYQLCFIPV
Chain of CYP2C9 (P11712 whole entry): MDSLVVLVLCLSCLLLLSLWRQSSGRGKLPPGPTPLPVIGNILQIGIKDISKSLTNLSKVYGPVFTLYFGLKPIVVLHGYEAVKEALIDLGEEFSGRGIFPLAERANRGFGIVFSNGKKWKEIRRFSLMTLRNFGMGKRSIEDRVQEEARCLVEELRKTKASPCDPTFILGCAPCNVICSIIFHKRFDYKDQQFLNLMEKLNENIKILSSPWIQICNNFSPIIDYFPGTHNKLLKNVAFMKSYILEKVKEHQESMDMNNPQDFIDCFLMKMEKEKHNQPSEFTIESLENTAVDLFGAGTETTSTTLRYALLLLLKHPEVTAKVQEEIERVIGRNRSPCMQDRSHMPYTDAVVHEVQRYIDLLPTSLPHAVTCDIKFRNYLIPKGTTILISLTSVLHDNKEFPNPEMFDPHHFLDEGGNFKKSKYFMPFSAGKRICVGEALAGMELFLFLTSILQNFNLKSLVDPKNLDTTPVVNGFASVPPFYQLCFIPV

| clearance [1, 2] | AUC [1, 3] | AUC [1, 4] | IC50 (CYP1A2) | IC50 (CYP2C9) | IC50 (CYP2C19) | IC50 (CYP2D6) | IC50 (CYP3A4) | SMILES |
| --- | --- | --- | --- | --- | --- | --- | --- | --- |
| 3.8 mL/min/kg | 2330 ng·h/mL | 2460 ng·h/mL |  |  |  |  |  | C[C@@H](Cn1c(=O)[nH]/c(=N\c2ccc(Oc3ccccn3)cc2)n(Cc2ccc(Cl)cc2)c1=O)C(=O)O [Compound I-127] |
| 2.3 mL/min/kg | 3790 ng·h/mL | 6110 ng·h/mL |  |  |  |  |  | O=C(O)C1(Cn2c(=O)[nH]/c(=N\c3ccc(Oc4cccc(F)n4)cc3)n(Cc3ccc(Cl)cc3)c2=O)CC1 [Compound I-017] |
|  |  |  | > 20 µM | > 20 µM | > 20 µM | > 20 µM | > 20 µM | COc1cc(Oc2ccc(/N=c3\[nH]c(=O)n(C[C@H](C)C(=O)O)c(=O)n3Cc3ccc(Cl)cc3)cc2)cc(F)n1 [Compound R-058] |
|  |  |  | > 20 µM | > 20 µM | > 20 µM | > 20 µM | > 20 µM | COc1ccnc(Oc2ccc(/N=c3\[nH]c(=O)n(C[C@H](C)C(=O)O)c(=O)n3Cc3ccc(Cl)cc3)cc2)c1 [Compound I-069] |
|  |  |  | > 20 µM | > 20 µM | > 20 µM | > 20 µM | > 20 µM | Cc1ccc(Cn2c(=O)n([C@@H](C)[C@@H](C)C(=O)O)c(=O)[nH]/c2=N\c2ccc(Oc3cccc(F)n3)cc2)cc1 [Compound I-106] |
| 4 mL/min/kg | 2300 ng·h/mL | 4890 ng·h/mL |  |  |  |  |  | C[C@@H](Cn1c(=O)[nH]/c(=N\c2ccc(Oc3cccc(Cl)n3)cc2)n(Cc2ccc(Cl)cc2)c1=O)C(=O)O [Compound I-014] |
| 5.8 mL/min/kg | 1510 ng·h/mL | 2030 ng·h/mL |  |  |  |  |  | Cc1ccc(Oc2ccc(/N=c3\[nH]c(=O)n(CC(C)(C)C(=O)O)c(=O)n3Cc3ccc(Cl)cc3)cc2)nc1 [Compound I-058] |
|  |  |  | > 20 µM | > 20 µM | > 20 µM | > 20 µM | > 20 µM | CC(C)(Cn1c(=O)[nH]/c(=N\c2ccc(Oc3cnc(Cl)cn3)cc2)n(Cc2ccc(Cl)cc2)c1=O)C(=O)O [Compound R-027] |
|  |  |  | > 20 µM | > 20 µM | > 20 µM | > 20 µM | > 20 µM | COc1nccc(Oc2ccc(/N=c3\[nH]c(=O)n([C@@H](C)[C@@H](C)C(=O)O)c(=O)n3Cc3ccc(Cl)cc3)cc2)n1 [Compound R-010] |
